Test results: article PMC9036655 (RSC Advances, 2021)
In brackets after ≈: the same amount, converted by molar mass.

What was measured:
Assay in all cases: Antibacterial spectrum test, agar double dilution MIC
Assay type in all cases: cell-based
[1] = test system: Klebsiella pneumoniae Esbls^−17-12
[2] = test system: Escherichia coli Esbls^−16-24
[3] = test system: Escherichia coli Esbls^−16-23
[4] = test system: Klebsiella pneumoniae Esbls^−17-11
[5] = test system: Pseudomonas aeruginosa 17-2; settings: 172
[6] = test system: Escherichia coli ATCC25922

C[C@H]1COc2c(N3CCN(C)CC3)c(F)cc3c(=O)c(C(=O)O)cn1c23 [Levofloxacin tablets, Levofloxacin]
MIC [1]: < 0.008 µg/mL | MIC [2]: < 0.008 µg/mL | MIC [3]: 16 µg/mL (≈ 44.3 µM) | MIC [4]: 0.03 µg/mL (≈ 0.083 µM) | MIC [5]: 16 µg/mL (≈ 44.3 µM) | MIC [6]: < 0.008 µg/mL
